Test results from patent US20160304461A1, “QUINOLONE COMPOUND AND PHARMACEUTICAL COMPOSITION” (OTSUKA PHARMACEUTICAL CO., LTD., priority 2007, published 2016).

Work on `CCCOc1ccc(F)c2c(=O)c(-c3ccc(OC)c(F)c3)c[nH]c12` [Example 2, 5-Fluoro-3-(3-fluoro-4-methoxyphenyl)-8-propoxy-1H-quinolin-4-one] yielded a melting point of 194 to 195 °C. For `CCCOc1ccc(F)c2c(=O)c(-c3ccc(OC(F)(F)F)cc3)c[nH]c12` [Example 5, 5-Fluoro-8-propoxy-3-(4-trifluoromethoxyphenyl)-1H-quinolin-4-one], the melting point was 212 to 214 °C. `CCCOc1ccc(F)c2c(=O)c(-c3ccccc3OC)c[nH]c12` [Example 7, 5-Fluoro-3-(2-methoxyphenyl)-8-propoxy-1H-quinolin-4-one] gave a melting point of 193 to 195 °C. `CCCOc1ccc(F)c2c(=O)c(-c3ccc(OC)cc3OC)c[nH]c12` [Example 8, 3-(2,4-Dimethoxyphenyl)-5-fluoro-8-propoxy-1H-quinolin-4-one] gave a melting point of 116 to 118 °C. In the case of `COc1ccc(-c2c[nH]c3c(OC(C)C)ccc(F)c3c2=O)cc1` [Example 9, 5-Fluoro-8-isopropoxy-3-(4-methoxyphenyl)-1H-quinolin-4-one], the melting point was 193 to 194 °C. With `CCCOc1ccc(F)c2c(=O)c(-c3ccc(Cl)cc3Cl)c[nH]c12` [Example 10, 3-(2,4-Dichlorophenyl)-5-fluoro-8-propoxy-1H-quinolin-4-one] the melting point was 256 to 259 °C. In the case of `CCOc1ccc(F)c2c(=O)c(-c3ccc(OC)cc3)c[nH]c12` [Example 11, 8-Ethoxy-5-fluoro-3-(4-methoxyphenyl)-1H-quinolin-4-one], the melting point was 155 to 156 °C. `CCOc1ccc(F)c2c(=O)c(-c3ccc(OC)cc3OC)c[nH]c12` [Example 12, 3-(2,4-Dimethoxyphenyl)-8-ethoxy-5-fluoro-1H-quinolin-4-one] gave a melting point of 154 to 155 °C. Work on `CCOc1ccc(F)c2c(=O)c(-c3ccc(Cl)cc3Cl)c[nH]c12` [Example 13, 3-(2,4-Dichlorophenyl)-8-ethoxy-5-fluoro-1H-quinolin-4-one] yielded a melting point of 236 to 237 °C. In the case of `COc1ccc(-c2c[nH]c3c(N4CCOCC4)ccc(F)c3c2=O)cc1` [Example 14, 5-Fluoro-3-(4-methoxyphenyl)-8-morpholin-4-yl-1H-quinolin-4-one], the melting point was 249 to 251 °C. Work on `CCCOc1ccc(F)c2c(=O)c(-c3ccc(OC)cc3OC(C)C)c[nH]c12` [Example 15, 5-Fluoro-3-(2-isopropoxy-4-methoxyphenyl)-8-propoxy-1H-quinolin-4-one] yielded a melting point of 204 to 206 °C. In the case of `CCCOc1ccc(F)c2c(=O)c(-c3ccc(OC)cc3C)c[nH]c12` [Example 16, 5-Fluoro-3-(4-methoxy-2-methylphenyl)-8-propoxy-1H-quinolin-4-one], the melting point was 197 to 199 °C. Molecule `CCCOc1ccc(F)c2c(=O)c(-c3ccc(OC)cc3F)c[nH]c12` [Example 17, 5-Fluoro-3-(2-fluoro-4-methoxyphenyl)-8-propoxy-1H-quinolin-4-one] has a melting point of 230 to 232 °C. Work on `COc1ccc(-c2c[nH]c3c(N4CCCC4)ccc(F)c3c2=O)cc1` [Example 18, 5-Fluoro-3-(4-methoxyphenyl)-8-pyrrolidin-1-yl-1H-quinolin-4-one] yielded a melting point of 100 to 105 °C. `CCCOc1ccc(F)c2c(=O)c(-c3ccc(OCC)cc3OC)c[nH]c12` [Example 19, 3-(4-Ethoxy-2-methoxyphenyl)-5-fluoro-8-propoxy-1H-quinolin-4-one] showed a melting point of 118 to 120 °C. For `CCCOc1ccc(F)c2c(=O)c(-c3ccc(OC(C)C)cc3OC)c[nH]c12` [Example 20, 5-Fluoro-3-(4-isopropoxy-2-methoxyphenyl)-8-propoxy-1H-quinolin-4-one], the melting point was 113 to 115 °C. Work on `COc1ccc(-c2c[nH]c3c(Br)ccc(F)c3c2=O)cc1` [Example 22, 8-Bromo-5-fluoro-3-(4-methoxyphenyl)-1H-quinolin-4-one] yielded a melting point of 134 to 135 °C. With `COc1ccc(-c2c[nH]c3c(C(=O)N4CCCC4)ccc(F)c3c2=O)cc1` [Example 23, 5-Fluoro-3-(4-methoxyphenyl)-8-(pyrrolidin-1-carbonyl)-1H-quinolin-4-one] the melting point was 236 to 237 °C.
